One compound from patent EP2902035B1, “Cell-permeable peptide inhibitors of the JNK signal transduction pathway for use in the treatment of inflammatory eye diseases” (Xigen Inflammation Ltd., priority 2010, dated 2012) can be followed below.

What all share (assay type): in vivo, Lewis rats
The test system of assay [1] is polymorphonuclear cells (PMN). Nature of the assay: Quantification of infiltrating polymorphonuclear cells on histological sections in EIU. Conditions: at 24 hours, mean ± SEM. The method, then: (§1) For immunohistochemistry, eyeballs were collected and fixed for 1h at room temperature in phosphate buffered saline (PBS) containing 4% paraformaldehyde before being rinsed overnight in PBS. The next day, samples were embedded and frozen in optimal cutting-temperature (OCT) compound (Tissue-Tek®, Sakura Finetek, Zoeterwoude, Netherland) and stored at -80°C. Frozen antero-posterior sections of eyes (10 µm thick) were performed at the optic nerve level using a cryostat (Leica CM 3050S, Rueil-Malmaison, France) and mounted on super-frost slides for immunohistochemical analysis.
(§2) A second set of experiment was designed to evaluate the anti-inflammatory effect of the JNK-inhibitor (poly-)peptide of SEQ ID NO: 11 at the cellular and tissue level as well as the biodistribution of this molecule 24 hours after administration. Rats were randomized into 11 experimental groups. 6 groups of rats with uveitis: untreated uveitic rats, rats injected intravenously with NaCl or the JNK-inhibitor (poly-)peptide of SEQ ID NO: 11 and rats injected intravitreously with the vehicle, the JNK-inhibitor (poly-)peptide of SEQ ID NO: 11 or dexamethasone. The 5 additional groups without uveitis were: untreated healthy rats, rats treated by NaCl IV or the JNK-inhibitor (poly-)peptide of SEQ ID NO: 11 IV and rats injected IVT with NaCl or the JNK-inhibitor (poly-)peptide of SEQ ID NO: 11. Three eyes from separate rats were collected per group and used for immunohistochemistry.
(§3) To characterize the cellular infiltrate, sections were double-stained with ED1 and iNOS. […] After staining nuclei with DAPI (Sigma-Aldrich, Saint-Quentin Fallavier, France), sections were mounted in PBS/Glycerol (1/1) and observed by fluorescence photomicroscopy (FXA, Microphot, Nikon, Melville, USA). […] ED1 positive cells and polymorphonuclear cells, identified by the shape of their nuclei stained with DAPI, were quantified on histological sections. […] Results were expressed as mean ± standard error of the mean (SEM).

Assay [2] relates to intraocular LPS-induced Chemokine/Cytokine profiles. Description: Chemokine/Cytokine Multiplex Assay on ocular fluids in EIU. The method, then:
Aqueous humor and vitreous were collected and pooled from each enucleated eye. Ocular fluids were immediately centrifuged and the cell-free fractions were collected and frozen at -20°C before analysis by Multiplex assay. Blood samples were first clotted at room temperature for 2 hours and then at 4°C overnight. Serum was collected, centrifuged and the clear supernatant was collected and frozen at -20°C before Multiplex analysis.
In a first set of experiment, 70 rats were randomized into 14 experimental groups with 5 rats per group. Uveitis was induced in each group and rats were killed 6 hours (4 groups), 24 hours (6 groups) and 48 hours (4 groups) after LPS challenge. For each time point tested (i.e. 6h, 24h and 48h), rats treated by intravenous or intravitreous injections of vehicle (NaCl 0.9%) or the JNK-inhibitor (poly-)peptide of SEQ ID NO: 11 were compared to untreated control uveitic rats. Two additional groups, treated by intravenous injection of vehicle and intravitreal injection of dexamethasone were used at 24 hours. Clinical ocular inflammation was recorded only at 24 hours (see Scoring of Endotoxin-Induced Uveitis (EIU) section). At each time point, intraocular fluids from each eye (n=10 per group) and serum from each animal (n=5 per group) were used for Chemokine/Cytokine Multiplex Assay.
Intraocular fluids (diluted to obtain a final volume of 25 µL) and sera (25 µL of 1:5 dilution) were subjected to multiplex bead analysis. This method uses microspheres as the solid support for immunoassays 12 and allows the titration of a greater number of cytokines with increased sensitivity than occurs with ELISA.13 For each sample, seventeen analytes were quantified simultaneously using the rat Cytokine/Chemokine-17plex kit (Milliplex Map Kit, Millipore, Saint-Quentin-en-Yvelines, France) according to the manufacturer's instructions: Chemokines MCP-1/CCL2, MIP-1α/CCL3, RANTES/CCL5, IP-10/CXCL10 (IFN-inducible protein-10) and GRO/KC; proinflammatory mediators IL-1, IL-18 and TNF-; Th1/Th2/Th17 cytokines IL-2 and IFN- / IL-4, IL-5, IL-6, IL-10 and IL-13 / IL-17. The assay was performed in a 96-well filter plate and standard curves for each cytokine were generated with a Rat Cytokine Standard provided in the kit. All incubation steps were performed under medium orbital agitation and in the dark to protect the beads from light. Data acquisition and analysis were performed with the manager software version 4.1 (Bioplex; Bio-Rad) with four or five logistic parameters for standard curves. Detection thresholds for all the analytes were estimated around 1 to 10 pg/mL.

The test system of assay [3] is ED1 positive cells. Nature of the assay: Quantification of infiltrating ED1 positive cells on histological sections in EIU. Conditions: 24 hours after LPS challenge, mean ± SEM. The method, then:
as §1, §2, §3

[4] abbreviates: IVT injection (SEQ ID NO: 11: 0.2 µg/injection).
Setting [5] is: ocular fluids, IV at the time of LPS challenge, at 6 and 24 hours.
[6] abbreviates: ocular fluids, IV, at different time points.
The mark [7] stands for this setting: ocular fluids, IVT, at 24 hours.
Where [8] appears, read: treated versus untreated eyes, any of the tested time points.

For `CC(C)C[C@@H](NC(=O)[C@@H](Cc1ccccc1)NC(=O)[C@H]1CCCN1C(=O)[C@@H](CCC(N)=O)NC(=O)[C@H](NC(=O)[C@H]1CCCN1C(=O)[C@@H](CCCNC(=N)N)NC(=O)[C@@H](CO)NC(=O)[C@@H](CCC(N)=O)NC(=O)[C@H](N)CC(=O)O)C(C)C)C(=O)N[C@H](CC(N)=O)C(=O)N[C@H](CC(C)C)C(=O)N[C@@H](C(=O)N[C@@H](C(=O)N1CCC[C@@H]1C(=O)N[C@H](CCCNC(=N)N)C(=O)N[C@H](CCCCN)C(=O)N1CCC[C@@H]1C(=O)N[C@H](CCCNC(=N)N)C(=O)N1CCC[C@@H]1C(=O)N1CCC[C@@H]1C(=O)N[C@H](CCCNC(=N)N)C(=O)N[C@H](CCCNC(=N)N)C(=O)N[C@H](CCCNC(=N)N)C(=O)N[C@H](CCC(N)=O)C(=O)N[C@H](CCCNC(=N)N)C(=O)N[C@H](CCCNC(=N)N)C(=O)N[C@H](CCCCN)C(=O)N[C@H](CCCCN)C(=O)N[C@H](CCCNC(=N)N)C(=O)NCC(=O)O)[C@H](C)O)[C@H](C)O` [SEQ ID NO: 11], the “number of polymorphonuclear cells (PMN)” value in assay [1] (IV administration (20 µg/kg)) is on record as 60 ± 6. Also, in assay [1] (setting [4]), the “number of polymorphonuclear cells (PMN)” value is listed as 40 ± 5. In assay [2] (setting [5]), the MCP-1 entry is reported as “significant reduction”, the MIP-1α result is “significant reduction” and the RANTES entry was “significant reduction”. The GRO/KC result in assay [2] (ocular fluids, IV, at 6 hours) is on record as “significantly reduced”. Besides, the IL-10 result in assay [2] (ocular fluids, IV, at 6 hours, not significantly) is “tended to increase”. In assay [2] (setting [6]), the IL-6 entry is given as “significantly reduced”, the INF-γ entry is “significantly reduced” and the TNF-α entry is “significantly reduced”. Further, in assay [2] (ocular fluids, IVT, at 6 hours), the IL-2 result was “trend to a decrease”, the IL-6 result was “trend to a decrease”, the MCP-1 result was “trend to a decrease” and the TNF-α result is reported as “trend to a decrease”. Further, in assay [2] (setting [7]), the IL-2 result is “marked decrease” and the IL-13 entry is “increase”. In addition, the chemokine/ cytokine profiles result in assay [2] (ocular fluids, injected into the vitreous at the time of LPS challenge, versus vehicle) is on record as “not strikingly different”. Further, in assay [2] (setting [8]), the IL-1β entry was “did not differ”, the IL-4 entry is reported as “did not differ” and the IL-18 result is recorded as “did not differ”. In addition, in assay [3] (IV injection (20 µg/kg)), the “number of ED1 positive cells” value worked out at 137 ± 7. Besides, in assay [3] (setting [4]), the “number of ED1 positive infiltrating cells” value is 93 ± 8.
